According to ChEMBL document CHEMBL4052699, “Synthesis, in vitro and in vivo giardicidal activity of nitrothiazole-NSAID chimeras displaying broad antiprotozoal spectrum” (Bioorg Med Chem Lett, 2017):
“And” between values parts separate entries of the source, which are not always exact repeats. Equal entries are not always repeated.

Key:
Giardia intestinalis [1] = assay: Antiprotozoal activity against Giardia intestinalis IMSS:0696:1 (genotype A) trophozoites incubated for 48 hrs; type: functional; conditions: Giardia duodenalis
Trichomonas vaginalis [2] = assay: Antiprotozoal activity against Trichomonas vaginalis GT3 trophozoites incubated for 48 hrs; type: functional; conditions: GT3, 48 h
Leishmania amazonensis [3] = assay: Antiprotozoal activity against Leishmania amazonensis IFLA/BR/67/PH-8 incubated for 72 hrs by Neubauer chamber based cell counting method; type: functional; conditions: IFLA/BR/67/PH-8, 72 h
Leishmania mexicana = assay: Antiprotozoal activity against Leishmania mexicana MHOM/MX/ISETGS incubated for 72 hrs by Neubauer chamber based cell counting method; type: functional
Trypanosoma cruzi [4] = assay: Potency index, ratio of IC50 for benznidazole to IC50 for test compound for antiprotozoal activity against Trypanosoma cruzi MHOM/MX/1994/Ninoa incubated for 72 hrs by Neubauer chamber based cell counting method; type: functional
Trypanosoma cruzi [5] = assay: Antiprotozoal activity against Trypanosoma cruzi MHOM/MX/1994/Ninoa incubated for 72 hrs by Neubauer chamber based cell counting method; type: functional
[6] = Cytotoxicity against African green monkey Vero cells incubated for 24 to 48 hrs by SRB assay; type: cell-based; conditions: chlorocebus sabaeus
Trichomonas vaginalis [7] = assay: Potency index, ratio of IC50 for nitazoxanide to IC50 for test compound for antiprotozoal activity against Trichomonas vaginalis GT3 trophozoites incubated for 48 hrs; type: functional
Trichomonas vaginalis [8] = assay: Potency index, ratio of IC50 for metronidazole to IC50 for test compound for antiprotozoal activity against Trichomonas vaginalis GT3 trophozoites incubated for 48 hrs; type: functional
[9] = Selectivity index, ratio of CC50 for cytotoxicity against African green monkey Vero cells to IC50 for Giardia intestinalis Giardia intestinalis IMSS:0696:1 (genotype A)
[10] = Selectivity index, ratio of CC50 for cytotoxicity against African green monkey Vero cells to IC50 for Trichomonas vaginalis GT3
[11] = Selectivity index, ratio of CC50 for cytotoxicity against African green monkey Vero cells to IC50 for Leishmania mexicana MHOM/MX/ISETGS; type: toxicity, cell-based; conditions: read-out: Ratio CC50/IC50
Giardia intestinalis [12] = assay: Antigiardial activity against Giardia intestinalis WB trophozoites infected in CD1 mouse dosed intragastrically 6 days after infection and measured 48 hrs post dose; type: functional; conditions: Giardia duodenalis, po
Giardia intestinalis [13] = assay: Potency index, ratio of ED50 for metronidazole to ED50 for test compound for antigiardial activity against Giardia intestinalis WB trophozoites infected in CD1 mouse dosed intragastrically 6 days after infection and measured 48 hrs post dose; type: functional, Giardia duodenalis
Giardia intestinalis [14] = assay: Potency index, ratio of ED50 for nitazoxanide to ED50 for test compound for antigiardial activity against Giardia intestinalis WB trophozoites infected in CD1 mouse dosed intragastrically 6 days after infection and measured 48 hrs post dose; type: functional, Giardia duodenalis
Giardia intestinalis [15] = assay: Potency index, ratio of IC50 for metronidazole to IC50 for test compound for antiprotozoal activity against Giardia intestinalis IMSS:0696:1 (genotype A) trophozoites incubated for 48 hrs; type: functional, Giardia duodenalis
Giardia intestinalis [16] = assay: Potency index, ratio of IC50 for nitazoxanide to IC50 for test compound for antiprotozoal activity against Giardia intestinalis IMSS:0696:1 (genotype A) trophozoites incubated for 48 hrs; type: functional, Giardia duodenalis
Leishmania amazonensis [17] = assay: Potency index, ratio of IC50 for pentamidine to IC50 for test compound for antiprotozoal activity against Leishmania amazonensis IFLA/BR/67/PH-8 incubated for 72 hrs by Neubauer chamber based cell counting method; type: functional
Leishmania amazonensis [18] = assay: Potency index, ratio of IC50 for nitazoxanide to IC50 for test compound for antiprotozoal activity against Leishmania amazonensis IFLA/BR/67/PH-8 incubated for 72 hrs by Neubauer chamber based cell counting method; type: functional

IC50 (Giardia intestinalis [1]) | IC50 (Trichomonas vaginalis [2]) | IC50 (Leishmania amazonensis [3]) | IC50 (Leishmania mexicana) | IC50 (Trypanosoma cruzi [5]) | Compound | Ratio IC50 (Trypanosoma cruzi [4]) | CC50 [6] | Ratio IC50 (Trichomonas vaginalis [7]) | Ratio IC50 (Trichomonas vaginalis [8]) | Ratio CC50/IC50 [9] | Ratio CC50/IC50 [10] | selectivity ratio [11] | ED50 (Giardia intestinalis [12]) | Ratio ED50 (Giardia intestinalis [13]) | Ratio ED50 (Giardia intestinalis [14]) | Ratio IC50 (Giardia intestinalis [15]) | Ratio IC50 (Giardia intestinalis [16]) | Ratio IC50 (Leishmania amazonensis [17]) | Ratio IC50 (Leishmania amazonensis [18])
0.172 µM | 0.032 µM | 3.43 µM | 16.6 µM | 12.2 µM | CC(C)(Oc1ccc(Cl)cc1)C(=O)Nc1ncc([N+](=O)[O-])s1 | 2 | 22 µM | 2 | 10 | 127 | 686 | 6 | 0.00384 mg/kg and 0.0113 µmol/kg | 50 - 300 | 50 - 300 |  |  |  | 
0.145 µM | 0.134 µM | 0.88 µM | 6.77 µM | > 50 µM | COc1ccc2c(c1)c(CC(=O)Nc1ncc([N+](=O)[O-])s1)c(C)n2C(=O)c1ccc(Cl)cc1 |  | 13 µM |  |  | 89 | 96 | 15 | 0.00171 mg/kg and 0.00353 µmol/kg | 321 | 1015 | 38 | 8 | 16 | 8
0.221 µM | 0.162 µM | 3.64 µM | 25.5 µM | 12.9 µM | COc1ccc2cc([C@H](C)C(=O)Nc3ncc([N+](=O)[O-])s3)ccc2c1 | 2 | 180 µM |  |  | 815 | 1112 | 49 | 0.00766 mg/kg and 0.0215 µmol/kg | 50 - 300 | 50 - 300 |  |  |  | 
0.147 µM | 0.218 µM | 1.89 µM | 6.12 µM | 15.7 µM | O=C(Cc1ccccc1Nc1c(Cl)cccc1Cl)Nc1ncc([N+](=O)[O-])s1 | 2 |  |  |  |  |  |  |  |  |  | 38 | 8 |  | 
0.227 µM | 0.045 µM | 6.42 µM | 17.1 µM | 15 µM | CC(C)Cc1ccc(C(C)C(=O)Nc2ncc([N+](=O)[O-])s2)cc1 (racemic) | 2 | 201 µM | 1.7 | 7 | 887 | 4475 | 31 | 0.00399 mg/kg and 0.012 µmol/kg | 50 - 300 | 50 - 300 |  |  |  | 
 |  | > 50 µM | > 50 µM |  | O=C(Cn1ccnc1[N+](=O)[O-])NCc1ccccc1 [BENZNIDAZOLE] |  |  |  |  |  |  |  |  |  |  |  |  |  | 
 |  | > 50 µM | > 50 µM | > 50 µM | Cc1ncc([N+](=O)[O-])n1CCO [METRONIDAZOLE] |  |  |  |  | 72 | 1134 | < 7 |  |  |  |  |  |  | 
20 µM | 20 µM | 1.35 µM | 2.03 µM | 25.2 µM | CCCCCCCCCCCCCCCCOP(=O)([O-])OCC[N+](C)(C)C [MILTEFOSINE] |  | 0.12 µM |  |  |  |  |  |  |  |  |  |  |  | 
 |  |  | 3.1 µM | 7.45 µM | CC1CS(=O)(=O)CCN1/N=C/c1ccc([N+](=O)[O-])o1 (stereo unspecified) [NIFURTIMOX] |  |  |  |  |  |  |  |  |  |  |  |  |  | 
 |  |  |  |  | CC(=O)Oc1ccccc1C(=O)Nc1ncc([N+](=O)[O-])s1 [NITAZOXANIDE] | 2 |  |  |  |  |  | 115 | 1.1 mg/kg and 3.58 µmol/kg |  |  |  |  |  | 
 |  |  |  | > 50 µM | N=C(N)c1ccc(OCCCCCOc2ccc(C(=N)N)cc2)cc1 [PENTAMIDINE] |  |  |  |  | 11 | 12.3 | 3.2 |  |  |  |  |  |  | 

Compound | IC50 (Giardia intestinalis [1]) | IC50 (Trichomonas vaginalis [2]) | IC50 (Leishmania amazonensis [3]) | IC50 (Leishmania mexicana) | IC50 (Trypanosoma cruzi [5]) | Ratio IC50 (Trypanosoma cruzi [4]) | CC50 [6] | Ratio IC50 (Trichomonas vaginalis [7]) | Ratio IC50 (Trichomonas vaginalis [8]) | Ratio CC50/IC50 [9] | Ratio CC50/IC50 [10] | selectivity ratio [11] | ED50 (Giardia intestinalis [12]) | Ratio ED50 (Giardia intestinalis [13]) | Ratio ED50 (Giardia intestinalis [14]) | Ratio IC50 (Giardia intestinalis [15]) | Ratio IC50 (Giardia intestinalis [16]) | Ratio IC50 (Leishmania amazonensis [17]) | Ratio IC50 (Leishmania amazonensis [18])
O=[N+]([O-])c1cncs1 | 29.6 µM | 52.9 µM | > 50 µM | > 50 µM | > 50 µM |  | 441 µM |  |  |  |  |  |  |  |  |  |  |  | 
